The values that follow come from patent publication EP0321208A1, “Improvements in or relating to avian control” (priority 1987, dated 1989).

Read-outs that look alike come from different tables or passages of the source.

The subject of data set [1] is feral pigeons. Put plainly: Four day two-choice feeding test with feral pigeons. Format: in vivo. To be noted: for Mean consumption of treated food: four day two-choice, 0.5% w/w compound/pellet. Here is the method: (§1) Feral pigeons were transferred from a communal outdoor aviary to individual cages and maintained on a 10 hour light - 14 hour dark cycle. Birds were gradually weaned away from their normal diet of maize, wheat and maple peas to a standard laboratory diet of turkey starter pellets.
(§2) The pellets were oven dried and then left to absorb atmospheric moisture. The control food was sprayed with the same volume of acetone/water mixture.
(§3) A group of 35 feral pigeons was caged individually for the trials which used eight compounds of formula (I) together with sucrose octaacetate and dimethyl anthranilate, both of which are substances which are known to be avian repellents. Each bird was subjected to treatment with each compound in a random order subject to the limitation of a latin square design. Each treatment was presented to the birds in no-choice and two-choice conditions. The no-choice phase lasted 3 days, during which a bird was presented with a single bowl containing 120 g of treated food. Each bird was weighed before and after the no-choice phase, as was the amount of food remaining. There immediately followed a two-choice phase in which the birds could choose between food treated with a given chemical and a bowl containing otherwise identical pellets without the chemical (the control treatment utilising two bowls of acetone/water treated pellets, one of which was arbitrarily selected as the control). The two-choice phase lasted four days during which food consumption was monitored daily. The position of the food bowls was alternated each day in order to overcome the confusing of food preference with position preference and ample water and grit were supplied throughout the trial.
The data obtained in the four day two-choice test is presented in Table 5 for mean consumption of treated food. […]

The test system of another data set is pigeon trypsin. Briefly: TAME assay: inhibition of pigeon intestinal trypsin activity. In kind it is biochemical. To be noted: for Inhibition of Activity: compound 60 µg/ml, TAME substrate, percentage inhibition of control activity ± standard deviation (n = 3), 5 min. On the procedure: (§4) Dried avian intestine powder (500 mg) was extracted for 30 minutes in 1 mM HC₁ (5 ml). The extract was centrifuged at 22,000 x g for 30 minutes at 4°C. The resultant supernatant was applied to a column of Sephadex G-50, medium grade (360 mm x 15 mm) and eluted with 0.5 mM HCl at 0.7 ml/min. Fractions (3.5 ml) were collected and tested for the presence of protein by determining their absorbance at 280 nm. The proteinaceous fractions were bulked and concentrated by passing them through an ultrafiltration unit (YM 30 filter). The concentrate was collected and kept at 4°C throughout its use.
The substrate was prepared by dissolving TAME (19 mg) in a mixture of 100 mM Tris-HCl buffer of pH 7.5 (50 ml) and 5% (w/v) calcium chloride solution (2 ml). The pigeon intestine protease was partially purified as described above prior to testing for trypsin activity. The reaction was carried out in a quartz cuvette (1 x 0.25 x 1 cm³) containing substrate (3 ml) and 100 mM Tris-HCl buffer pH 7.5 (100 µl). The reaction was started by the addition of the partially purified intestine protease (100 µl) and followed by the decrease in absorbance at 247 nm over a 5 minute period.
(§5) In both the chymotrypsin and the trypsin assays a control was however carried out using the 200 µl of buffer containing no added compound.

The conditions of data set [2]: pear buds.
In the next data set the test system is bullfinch trypsin. Put plainly: BAEE assay: inhibition of bullfinch intestinal trypsin activity. In kind it is biochemical. As to conditions: compound 1 x 10⁻⁵M; BAEE substrate; percentage inhibition of control activity ± standard deviation (n = 3); 7 min, 10 µM. On the procedure:
as §4
The substrate was prepared bv dissolving BAEE (10 mg) in a mixture of 50 mM Tris-HCl buffer of pH 7.5 (24 ml) and 5% (w/v) calcium chloride solution (1 ml). The bullfinch intestine protease activity was partially purified as described above prior to testing for trypsin activity. The reaction was carried out in a quartz cuvette (1 x 0.25 x 1 cm³) containing substrate (1 ml) and 50 mM Tris-HCl buffer (200 µl). The reaction was started by the addition of the partially purified intestine protease 1200 µl) and followed by the decrease in absorbance at 253 nm over a 7 minute period. All determinations were carried out in triplicate against a reagent blank.
as §5

The next data set concerns quail chymotrypsin. Briefly: ATEE assay: inhibition of quail intestinal chymotrypsin activity. Format: biochemical, Japanese quail. As to conditions: compound 1 x 10⁻⁵M; ATEE substrate; percentage inhibition of control activity ± standard deviation (n = 3); 5 min, 10 µM.
Data set [3] relates to feral pigeons. Briefly: Three day no-choice feeding test with feral pigeons. In kind it is in vivo. As to conditions: 0.5% w/w compound/pellet, ± standard deviation; for Mean weight difference: after the test compared with before; for Mean consumption: treated food. On the procedure:
as §1, §2, §3

Data set [4] has as its system Japanese quail. Put plainly: Feeding trial with choice, Japanese quail. To be noted: for Increase in body weight: value is for the birds offered both diets; for Average food eaten: treated diet eaten. In kind it is in vivo. The text has this:
(§6) (A) Six week old female japanese quail were preconditoned by weighing them seven days before the start of the feeding trial. Five quail were placed in each of four cages and each cage was provided with a different diet, these being (a) a control diet of standard turkey starter crumbs (TSC), (b) TSC treated with 5,000 ppm cinnamamide, (c) TSC treated with 5,000 ppm 4-hydroxy-3,5-dimethoxycinnamic acid, and (d) TSC treated with 2,500 ppm cinnamamide + 2,500 ppm 4-hydroxy-3,5-dimethoxycinnamic acid. The treated TSC was prepared in each case by dissolving/-suspending the compound or compounds in diethyl ether (1500 ml) and mixing this with TSC (2000 g) at 0.25% or 0.5% w/w concentration compound/TSC in an industrial food mixer for 1 hour to evaporate off the diethyl ether and produce a homogeneous mixture. The control was prepared by mixing TSC (2000 g) with diethyl ether for 1 hour in an industrial food mixer. The amount of each diet consumed and the weight gain of the birds was recorded on a daily basis for a period of 14 days. The trial was carried out in duplicate.
(B) In a variation of the treatment decribed in (A) four quail were placed in each of four cages and each cage was offered a choice between a control diet of TSC and TSC treated with one of (a) 5,000 ppm cinnamamide, (b) 2,500 ppm cinnamamide, (c) 1,000 ppm cinnamamide, and (d) 2,500 ppm cinnamamide + 2,500 ppm 4-hydroxy-3,5-dimethoxycinnamic acid. The various diets were prepared as described under (A).
The results of the trial are presented in Table 3, together with the standard deviation. It will be seen that in each case the birds consume less treated than untreated food and that although the weight gain was the least for the birds offered the control + 5,000 ppm cinnamamide diets, it was the 2,500 ppm cinnamamide + 2,500 ppm 4-hydroxy-3,5-dimethoxycinnamic acid diet which was least consumed.

Data set [5] concerns Japanese quail. Briefly: No choice feeding trial with Japanese quail. In kind it is in vivo. As to conditions: 5,000 ppm additive in turkey starter crumbs, 14 days, ± standard deviation.
Excerpt: as §6
The results of the trial are presented in Table 2, together with the standard deviation. It will be seen that diets (b) and (d) produced a decreased increase in body weight as compared with the control diet (a). It should be appreciated that increased consumption, which apparently occurs with diets (c) and (d), can be the result of a compensation against the occurrence of the enzyme inhibitory effect and a consequent reduction in value of the food consumed.

Where [6] appears, read: choice between control diet and diet with 1,000 ppm additive.
Setting [7] is: choice between control diet and diet with 2,500 ppm additive.
[8] abbreviates: choice between control diet and diet with 5,000 ppm additive.

Method for quail chymotrypsin: The substrate was prepared by dissolving ATEE (10 mg) in Tris-HCl buffer of pH 7.5 containing 30% (v/v) of methanol (25 ml). The quail intestine protease activity was partially purified as described above prior to testing for chymotrypsin activity. The reaction was carried out in a quartz cuvette (1 x 0.25 x 1 cm³) containing substrate (1 ml) and 100 mM Tris-HCl buffer (200 µl). The reaction was started by the addition of the partially purified intestine protease (200 µl) and followed bv the decrease in absorbance at 237 nm over a 5 minute period. All determinations were carried out in triplicate against a reagent blank.

Regarding `O=C(O)C=Cc1ccccc1` [Cinnamic Acid, cinnamic acid], the “Mean consumption of treated food” value in the data set with feral pigeons [1] is on record as 25.2 ± 2.9 grams. In addition, the “Inhibition of Activity” value in the data set on pigeon trypsin was determined as 93 ± 3 percentage. In addition, the “residues as a percentage of the initial level” value (“residues as a percentage” below) in data set [2] (192 h) is given as 41%. The “residues as a percentage” value in data set [2] (1224 h) worked out at 3%. For the same compound, the “Inhibition of Activity Trypsin” value in the data set on bullfinch trypsin was 85 ± 2 percentage. Besides, the “Inhibition of Activity Chymotrypsin” value with quail chymotrypsin was determined as 32 ± 3 percentage. In the data set on feral pigeons [3], this compound yielded a Mean weight difference of 2.4 ± 1.1 grams and a Mean consumption of 60.4 ± 3.1 grams.

For `O=C(O)C=Cc1ccc(O)c(O)c1` [3,4-Dihydroxycinnamic acid], the “Mean consumption of treated food” value with feral pigeons [1] worked out at 31.1 ± 3.4 grams. In addition, the “Inhibition of Activity” value in the data set on pigeon trypsin is on record as 22 ± 1 percentage. The “residues as a percentage” value in data set [2] (192 h) was found to be 8%. Moreover, in the data set with bullfinch trypsin, the “Inhibition of Activity Trypsin” value is recorded as 43 ± 3 percentage. The “Inhibition of Activity Chymotrypsin” value with quail chymotrypsin was 85 ± 2 percentage. In the data set on feral pigeons [3], this compound showed a Mean weight difference of 2.3 ± 1.1 grams and a Mean consumption of 63.3 ± 3.0 grams.

As to `NC(=O)C=Cc1ccccc1` [Cinnamamide, cinnamamide], in the data set with feral pigeons [1], the “Mean consumption of treated food” value came out at 6.0 ± 1.5 grams. The “deterrent effect on food consumption” value in the data set with feral pigeons [1] (two-choice test, proportions of treated and untreated food consumed, statement in words) is reported as “most marked”; in the data set on Japanese quail [4] (quail, statement in words), “a deterrent effect on food consumpton was noted”. Besides, in the data set on pigeon trypsin, the “Inhibition of Activity” value amounted to 0 percentage. In the data set with pigeon trypsin (statement in words), the “activity against pigeon intestinal trypsin” value is “no activity was observed”. The “Inhibition of Activity Trypsin” value with bullfinch trypsin is reported as 64 ± 2 percentage. In addition, the “Inhibition of Activity Chymotrypsin” value with quail chymotrypsin is given as 5 ± 1 percentage. In addition, the “Increase in body weight” value in the data set on Japanese quail [4] (setting [6]) turned out to be 1.29 ± 0.10 g/bird/day; in the data set on Japanese quail [4] (setting [7]), 1.34 ± 0.20 g/bird/day; with Japanese quail [4] (setting [8]), 0.66 ± 0.10 g/bird/day; in the data set with Japanese quail [5], 0.14 ± 0.04 g/bird/day. Moreover, the Average food eaten was determined as 6 ± 0.2 g/bird/day in the data set with Japanese quail [4] (setting [6]), 5 ± 0.4 g/bird/day with Japanese quail [4] (setting [7]), 4 ± 0.2 g/bird/day in the data set on Japanese quail [4] (setting [8]) and 17 ± 0.3 g/bird/day in the data set with Japanese quail [5]. For the same compound, the Mean weight difference in the data set on feral pigeons [3] is -16.2 ± 1.3 grams. Moreover, the Mean consumption with feral pigeons [3] is reported as 22.3 ± 2.7 grams.
